Data on 91 compounds can be found in a melting point compilation (Tetko et al.; mined from patent text by program, amines drawn as free bases though some values may be those of a salt).

Some results are limits rather than exact numbers.

A word on the melting point: it is the temperature, or range, at which the solid turns liquid.

Regarding `NS(=O)(=O)c1cc(C(=O)O)cc(SCc2ccccc2)c1Sc1ccccc1`, the melting point fell in the range of 208 to 209 °C.

For the compound `Cc1ccc(-c2c[nH]c(-c3ccc4c(c3)C(C)(C)CCC4(C)C)c2)cc1`, the melting point lay within 190 to 192 °C.

The compound `O=C(N[C@H]1CN(C(=O)N2CCC[C@H]2C(=O)O)C1=O)c1ccccc1` yielded a melting point of 148 to 151 °C. As for `O=C(NCCCl)c1c(Cl)cccc1Cl`, the melting point is 114 °C. Take `Cc1cncc(C(=O)Nc2cc(-c3c(-c4ccc(F)c(C)c4)nc4cccnn34)ccn2)c1`: the melting point is 238 to 240 °C.

`O=C(O)C1=Cc2cc3occ(-c4ccc(Br)cc4)c3cc2OC1C(F)(F)F` (stereo unspecified) gave a melting point of over 250 °C. As for `O=C(O)C1CCCN1C(=O)c1ccc(-c2ccccc2)cc1` (stereo unspecified), the figure is 160 °C; as for `O=C(O)c1cc2ncnn2nc1NCCCN1CCC(OC(c2ccccc2)c2ccccc2)CC1`, 207 to 209 °C.

`COC(=O)c1ccc2[nH]cc(CC#N)c2c1`: the melting point was in the range of 127 to 129 °C. In turn, `CCN(C(=O)CC(OC)(C(F)(F)F)C(F)(F)F)c1cn(-c2cccnc2)nc1C` returned a melting point of 83 to 86 °C. As to `Cc1cc2ncc(C(=O)O)nc2cc1C`, the melting point lay in the range of 214 to 216 °C. With `COC(=O)C1(N2CCCCC2)CCN(Cc2ccccc2)CC1`, the melting point was 84.7 °C. In the case of `COc1cc(NCCC(=O)O)c(C(C)=O)cc1OC` it was 150 to 152 °C. Compound `CCCCc1ccc2c(c1)Cc1ccccc1-2` gave a melting point of 65 to 66.5 °C. As for `CC(C)C=CC1(C(F)(F)F)OCC(=O)Nc2ccc(Cl)cc21` (stereo unspecified), the figure is 148 to 149 °C.

In turn, `O=c1c2c[nH]c3c(c-2nn1-c1ccc(Cl)cc1)CC(c1ccccc1)CC3` (stereo unspecified) returned a melting point of 333 to 335 °C. In turn, `COCCOCOc1c(C(C)(C)C)nc(C=NO)nc1C(C)(C)C` gave a melting point of 90 to 97 °C.

With `CC(C)Oc1c(C(=O)Nc2nnn[nH]2)sc2c1CCCC2`, the melting point lay within 223 to 225 °C. With `O=C(CC1CCCCC1=O)c1ccc(Br)cc1` (stereo unspecified), the melting point fell in the range of 78 to 80 °C. For `O=C1c2ccccc2C(=O)c2cc(S(=O)(=O)NCCCN3CCOCC3)ccc21`, the melting point lay within 151 to 156 °C. As to `O=C(O)c1cn(C2CC2)c2c(F)c(N3CC4CC3CN4Cc3ccc([N+](=O)[O-])cc3)c(F)cc2c1=O` (stereo unspecified), the melting point lay within 177 to 182 °C. Turning to `O=C(O)c1cc(F)c(N(CCO)CCO)c(F)c1`, the melting point was in the range of 146 to 150 °C.

For `CCN(CC)S(=O)(=O)c1cc(-c2csc(=Nc3ccccc3C)n2C)ccc1Cl`, the melting point came out at 166 °C. `CCCCc1nc(Cl)c(CO)n1Cc1ccc(-c2cccc(C(=O)OC)c2)cc1`: the melting point is 162 to 163 °C. As to `CCOC(=O)c1[nH]c(C)c(C)c1O`, the melting point was in the range of 111 to 113 °C. Compound `CCCCNc1nc(N)nc(NCCCC)n1` had a melting point of 73 °C. Take `O=Cc1ccc(OC(F)F)c2oc3ccc([N+](=O)[O-])cc3c12`: the melting point was 245 to 248 °C. As for `O=C1c2ccccc2C(=O)N1C[C@@H]1CCC=CO1`, the melting point fell in the range of 87 to 88 °C. In turn, `CCCc1cc(Cl)c2oc(Cc3ccc(OC)cc3)c(C)c2c1OC(C)=O` displayed a melting point of 119 to 120 °C.

Turning to `CC1(C)[C@H]2[C@H](O)OC(=O)[C@H]21`, the melting point amounted to 116 °C.

Take `CC(OS(C)(=O)=O)C(C)n1ncn(-c2ccc(N3CCN(c4ccc(OCC5COC(Cn6cncn6)(c6ccc(F)cc6F)O5)cc4)CC3)cc2)c1=O` (stereo unspecified): the melting point was 172 °C. `C=Cc1ccc(-c2ncccc2S(=O)(=O)Nc2ncc(C)nc2OC)cc1` registered a melting point of 110 to 112 °C. `Cc1cccc(NC(=O)NC2CN(C(=O)C(C)(C)C)c3ccc(C)cc3N(CC(=O)c3ccccc3C)C2=O)c1` (stereo unspecified) returned a melting point of 218 to 220 °C. With `Cn1nnc(-c2[nH]c3ccccc3c2Cl)n1`, the melting point was in the range of 197 to 199 °C. Take `CCCCCCCCC(C)C(N)=O` (stereo unspecified): the melting point lay within 80 to 81 °C. For `O=C(O)CON=C1CCCc2cc(OCCn3ccnc3)ccc21`, the melting point fell in the range of 193 to 195 °C.

For the compound `CC(C)(C(=O)O)c1cn2nc(CCCCN3CCN(C(c4ccccc4)c4ccccc4)CC3)ccc2n1`, the melting point was 108 to 110 °C.

In turn, `O=C1C=CC2(C=C1)N=C(N1CCN(Cc3cccc(C(F)(F)F)c3)CC1)C=C2c1ccccc1` yielded a melting point of 135 °C. `CS(=O)(=O)Nc1ccc2nc(CCl)ccc2c1` returned a melting point of 160 to 162 °C. In the case of `CCOC1(OC)CC(C)=C(CCc2cccc(OC)c2)C=C1OC` (stereo unspecified), the melting point lay in the range of 178 to 180 °C. Regarding `COc1cccc(Oc2c(NS(=O)(=O)c3ccc(C(C)(C)C)cc3)nc(C)nc2OCCO)c1`, the melting point was found to be 139 °C.

`O=C(O)c1cccc(NC(=O)C(CS)CC2CN(Cc3ccccc3)CCO2)c1` (stereo unspecified) came in with a melting point of 110 to 112 °C. Turning to `O=C(O)CC(=O)Nc1cc2ccccc2cc1C(=O)O`, the melting point was in the range of 225 to 227 °C. As for `COC(=O)C(C)Oc1ccc([N+](=O)[O-])cc1` (stereo unspecified), the figure is 79 to 80 °C; as for `COC(=O)c1ccc(Br)cc1CBr`, 78 to 79 °C; as for `COc1ccc(/C=C/C(=O)C2C(=O)CC(c3ccc(OC)cc3)C([N+](=O)[O-])C2c2ccc(OC)c(OC)c2)cc1` (stereo unspecified), 126 to 128 °C. In turn, `O=C(NCc1ccc(Br)cc1)c1c(F)cccc1F` had a melting point of 142 °C. In turn, `CC[Si](C#CC1(CO)OC(n2ccc(=O)[nH]c2=O)C(O)C1O)(CC)CC` (stereo unspecified) came in with a melting point of 183 to 186 °C. `CC(C)(C)OC(=O)N1CCN(c2cccc3c2ccn3S(=O)(=O)c2ccccc2)CC1` gave a melting point of 143 to 144 °C. In the case of `CC(=O)Nc1sc(C(=O)OCc2ccccc2)c(C)c1C(=O)OC(C)(C)C`, the melting point is 157 to 158 °C. `Cc1ccc(COc2ccccc2C=C2CCCCC2N2CCC2)cc1` (stereo unspecified) showed a melting point of 88 to 90 °C. As to `CCOCC1COc2cc3c(O)c(C#N)cnc3cc2O1` (stereo unspecified), the melting point was in the range of 248 to 254 °C.

With `C=CCNc1nc(NCc2ccccc2)c2scc(C)c2n1`, the melting point was 97 to 98 °C. `N#Cc1ccc(Nc2nc(N)nc(Cc3c(Cl)ccc4[nH]ccc34)n2)cc1` showed a melting point of 267 to 268 °C. `C#CC1(NC(=O)C(CCN2CCN(c3ccccc3OC)CC2)c2ccccc2)CCCCC1` (stereo unspecified) had a melting point of 127 to 129 °C. In the case of `FC1(F)c2ccccc2C(F)(F)C(F)(F)c2ccccc21` it was 53 to 55 °C. In the case of `CCCCCON=C(C(=O)OCC)c1csc(N)n1`, the melting point was in the range of 86 to 88 °C.

In turn, `COc1cc(Oc2ccc(C(=O)N(C3CCCCC3)C3CCCC3)cc2C)cc(OC)c1OC` had a melting point of 181 to 182 °C. For the compound `CCCC(=O)c1c[nH]c2cc(COC(=O)c3ccccc3)ccc2c1=O`, the melting point fell in the range of 228 to 231 °C. `CC(=O)Nc1c(C(=O)c2ccccc2)[nH]c2cc(N)ccc12` came in with a melting point of 219 to 221 °C. In turn, `O=S(=O)(c1cccc(-c2cc(-c3nc(-c4ccc(C(F)(F)F)cc4)cc(C(F)(F)F)n3)ccn2)c1)N1CCC(O)C1` (racemic) came in with a melting point of 234 °C. As to `COc1cccc(-c2cc3[nH]nc(I)c3s2)c1`, the melting point was 159 to 163 °C.

The compound `CCCC1CCC(C2CCc3c(c(F)c(F)c4cc(OCC)ccc34)O2)CC1` (stereo unspecified) came in with a melting point of 158 °C.

The compound `CCOc1ccccc1C=C1CCc2c1oc1ccc(C(=O)OC)cc1c2=O` had a melting point of 189 to 192 °C. Turning to `COC(=O)[C@H]1CN(c2ccc3c(c2)sc(=O)n3C(C)C)C(=O)O1`, the melting point is 161 to 162 °C. As for `CC(C)(C)c1ocnc1C=C(O)C(=O)O`, the figure is 153 to 155 °C. Compound `Cc1nc(N2CCc3nc(C)sc3CC2)c([N+](=O)[O-])c(=O)[nH]1` came in with a melting point of over 200 °C. The compound `Cn1nc(C(=O)O)nc1CCCC(O)=S` displayed a melting point of 118 to 120 °C. Consider `CCCCn1c(=O)n(CC=C(C)C)c(=O)c2c1ncn2S(=O)(=O)c1ccc(OC)c(OC)c1`, for which the melting point is 92 to 95 °C. In the case of `Nc1cccc(-c2ccccc2O)c1` it was 158 to 161 °C. In turn, `O=c1[nH]c(COc2ccc(Cl)c(Cl)c2)nc2nccnc12` gave a melting point of 285 to 287 °C.

Take `CC(C)N1C(=S)NC(c2ccccc2)c2cc3c(cc21)OCO3` (stereo unspecified): the melting point lay within 214 to 218 °C. In the case of `Cc1ccc(CO)nc1-c1ccccn1` it was 51 to 53 °C. On to `OCc1cccn2cc(C(F)(F)F)nc12`, for which the melting point was in the range of 118 to 120 °C. In the case of `COc1cc(COc2nn(-c3ccccc3)cc2/C=C/C(=O)N2CCOCC2)ccc1OCc1nc(-c2ccco2)oc1C` it was 180 to 181 °C; in that of `O=C(NCC(=O)c1ccco1)c1ccccc1`, 132 to 133 °C. As for `CC1(C)CC(O)CC(C)(C)N1OC1C=CCCC1` (stereo unspecified), the figure is 65 to 66.5 °C; as for `CC(=O)Nc1ccc(F)c(-c2ccncc2)n1`, 254 to 256 °C.

`COc1ccc(C=O)c(O)c1Cl` displayed a melting point of 114 to 117 °C. `N#Cc1ccc(Cn2c3cc(O)c(O)cc3c3ccc(O)c(O)c32)cc1` came in with a melting point of 225 to 227 °C.

`CCCn1nc2c(N)nc3ccccc3c2c1NCCC1CCN(C(C)=O)CC1` showed a melting point of 203 to 206 °C. As for `O=C(Nc1ccc(N2CCOCC2=O)cc1)[C@H]1C[C@@H](O)CN1C(=O)Cc1ccc(Cl)cc1`, the figure is 141 °C.

`O=[N+]([O-])c1ccc2c(c1)OC(COc1nccnc1N1CCNCC1)CO2` (stereo unspecified) returned a melting point of 133 to 135 °C. On to `CCOC(=O)c1ccc(C(F)(F)F)c(N)c1`, for which the melting point was in the range of 38 to 39 °C. For the compound `Fc1ccccc1-n1c(CN2CCOCC2)nnc1-c1ccc(-c2ccccc2)cc1`, the melting point is 129 to 131 °C. As for `ClCc1ccc(-n2c3ccccc3c3ccccc32)cc1`, the figure is 88 to 89 °C; as for `C1COCCOCCOCCNCCOCCOCCOCCN1`, 15 °C. `CN1C(=O)C(=Cc2ccc(O)c(C(C)(C)C)c2)SC1=S` registered a melting point of over 230 °C. For the compound `COc1cc(NC(=O)OC(C)(C)C)c(N)cc1-c1ccccc1F`, the melting point was found to be 161 °C. Take `CCCC1=C(C(=O)OCC)C(c2ccccc2OCc2ccccc2)c2c[nH]nc2N1` (stereo unspecified): the melting point worked out at 128 °C. Consider `O=C1C(=O)N(CC(F)(F)F)c2ccccc21`, for which the melting point fell in the range of 161 to 163 °C.
